For the series the following is noted: room temperature.

With risperidone tartrate, the “solubility relative to risperidone hydrochloride” value is recorded as “about 4 times”. Under “aqueous media”, the solubility entry is listed as “about 80 mg/ml”.

(Values after patent USRE39181E1, “Aqueous risperidone formulations” (priority 1994, dated 2006).)
